Laboratory results reported in patent US11596639B2, “Substituted indole Mcl-1 inhibitors” (Vanderbilt University, priority 2016, dated 2023).

System: H929 human cancer cell lines
Experiment: Cellular viability / proliferation (Cell TiterGlo, 72 h)
Format: cell-based
Details: H929 cells, 72 h, Cell TiterGlo, 10% FBS; read-out: GI50 on cellular proliferation of H929 human cancer cell lines
Protocol: Cellular Viability of Human Tumor Cell Lines
To evaluate compound effect on cellular proliferation, cells were plated at 1,000 cells/well in 96-well tissue culture plates in a total volume of 90 μL medium supplemented with 10% FBS (Sigma, Saint Louis, Mo.). 24 hours later, 10 μL of compound (in a 2-fold serial dilution) is added to the cells for a top concentration of 50 μM and a final DMSO concentration <1%. After 72 hours, 50 μL of Cell TiterGlo (Promega, Madison, Wis., USA) reagent is added to each well and plates are incubated at room temperature, in the dark, for 30 minutes. Luminescence is measured on a BioTek Cytation 3. Luminescence values are imported into a template in XLFit (Guildford, Surrey, UK) that uses a four-parameter fit to generate an IC50 value for each compound dilution series on the plate.

Row | Compound | GI50
1 | COc1ccc(N2C[C@@H](C)n3c(c(CCCOc4cc(C)c(Cl)c(C)c4)c4ccc(Cl)c(-c5c(C)nn(C)c5C)c43)C2=O)c2c1c(C(=O)O)cn2Cc1cccc(C)n1 [Example 621, (R)-7-(7-chloro-10-(3-(4-chloro-3,5-dimethylphenoxy)propyl)-4-methyl-1-oxo-6-(1,3,5-trimethyl-1H-pyrazol-4-yl)-3,4-dihydropyrazino[1,2-a]indol-2(1H)-yl)-4-methoxy-1-((6-methylpyridin-2-yl)methyl)-1H-indole-3-carboxylic add] | 390 nM

Same assay, conditions: Homo sapiens, NCI-H929, 72 h, read-out: GI50 on cellular proliferation of H929 human cancer cell lines, H929 cells, 72 h, Cell TiterGlo, 10% FBS

Row | Compound | GI50
2 | Cc1cc(OCCCc2c3n(c4c(-c5c(C)nn(C)c5C)c(Cl)ccc24)CCCN(c2cn(C)c4cc(C(=O)O)ccc24)C3=O)cc(C)c1Cl [Example 68, 3-(8-Chloro-11-(3-(4-chloro-3,5-dimethylphenoxy)propyl)-1-oxo-7-(1,3,5-trimethyl-1H-pyrazol-4-yl)-4,5-dihydro-1H-[1,4]diazepino[1,2-a]indol-2(3H)-yl)-1-methyl-1H-indole-6-carboxylic acid] | 350 nM
3 | Cc1cc(OCCCc2c3n(c4c(-c5c(C)nn(C)c5C)c(Cl)ccc24)[C@@H](C)CN(c2cn(C)c4ccc(C(=O)O)cc24)C3=O)cc(C)c1Cl [Example 212, (S)-3-(7-chloro-10-(3-(4-chloro-3,5-dimethylphenoxy)propyl)-4-methyl-1-oxo-6-(1,3,5-trimethyl-1H-pyrazol-4-yl)-3,4-dihydropyrazino[1,2-a]indol-2(1H)-yl)-1-methyl-1H-indole-5-carboxylic acid] | 3400 nM
4 | COCCn1c(C(=O)O)cc2cc(C)cc(N3C[C@@H](C)n4c(c(CCCOc5cc(C)c(Cl)c(C)c5)c5ccc(Cl)c(-c6c(C)nc(CN7CCN(C)C(=O)C7)nc6C)c54)C3=O)c21 [Example 729, (R)-7-(7-chloro-10-(3-(4-chloro-3,5-dimethylphenoxy)propyl)-6-(4,6-dimethyl-2-((4-methyl-3-oxopiperazin-1-yl)methyl)pyrimidin-5-yl)-4-methyl-1-oxo-3,4-dihydropyrazino[1,2-a]indol-2(1H)-yl)-1-(2-methoxyethyl)-5-methyl-1H-indole-2-carboxylic acid] | 260 nM
5 | Cc1cc(OCCCc2c3n(c4c(-c5c(C)nn(C)c5C)c(Cl)ccc24)CCCN(Cc2cc(C(=O)O)ccn2)C3=O)cc(C)c1Cl [Example 43, 2-((8-Chloro-11-(3-(4-chloro-3,5-dimethylphenoxy)propyl)-1-oxo-7-(1,3,5-trimethyl-1H-pyrazol-4-yl)-4,5-dihydro-1H-[1,4]diazepino[1,2-a]indol-2(3H)-yl)methyl)isonicotinic acid] | 9400 nM
6 | Cc1cc(OCCCc2c3n(c4c(-c5c(C)n[nH]c5C)c(Cl)ccc24)[C@H](C)CN(c2cccc4c(C(=O)O)cn(C)c24)C3=O)cc(C)c1Cl [Example 108, (R)-7-(7-chloro-10-(3-(4-chloro-3,5-dimethylphenoxy)propyl)-6-(3,5-dimethyl-1H-pyrazol-4-yl)-4-methyl-1-oxo-3,4-dihydropyrazino[1,2-a]indol-2(1H)-yl)-1-methyl-1H-indole-3-carboxylic acid] | 880 nM
7 | Cc1cc(OCCCc2c3n(c4c(-c5c(C)nn(C)c5C)c(Cl)ccc24)CCCN(c2cc(C(=O)O)c4ccn(C)c4c2)C3=O)cc(C)c1Cl (single isomer, unassigned) [Example 431, 6-(8-Chloro-11-(3-(4-chloro-3,5-dimethylphenoxy)propyl)-1-oxo-7-(1,3,5-trimethyl-1H-pyrazol-4-yl)-4,5-dihydro-1H-[1,4]diazepino[1,2-a]indol-2(3H)-yl)-1-methyl-1H-indole-4-carboxylic acid] | 2900 nM
8 | Cc1cc(OCCCc2c3n(c4c(-c5c(C)nn(C)c5C)c(Cl)ccc24)[C@H](C)CN(c2cc(N(C)C(=O)CN4CCCCC4)cc4c(C(=O)O)cn(C)c24)C3=O)cc(C)c1Cl [Example 612, (R)-7-(7-chloro-10-(3-(4-chloro-3,5-dimethylphenoxy)propyl)-4-methyl-1-oxo-6-(1,3,5-trimethyl-1H-pyrazol-4-yl)-3,4-dihydropyrazino[1,2-a]indol-2(1H)-yl)-1-methyl-5-(N-methyl-2-(piperidin-1-yl)acetamido)-1H-indole-3-carboxylic acid] | 7600 nM
9 | COc1ccc(N2C[C@@H](C)n3c(c(CCCOc4cc(C)c(Cl)c(C)c4)c4ccc(Cl)c(-c5c(C)nn(C)c5C)c43)C2=O)c2c1c(C(=O)O)cn2Cc1cccc(C)n1 [Example 622, (R)-7-(7-chloro-10-(3-(4-chloro-3,5-dimethylphenoxy)propyl)-4-methyl-1-oxo-6-(1,3,5-trimethyl-1H-pyrazol-4-yl)-3,4-dihydropyrazino[1,2-a]indol-2(1H)-yl)-4-methoxy-1-((6-methylpyridin-2-yl)methyl)-1H-indole-3-carboxylic acid] | 920 nM
10 | Cc1cccc(Cn2c(C(=O)O)cc3cc(OCCN(C)C)cc(N4C[C@@H](C)n5c(c(CCCOc6cc(C)c(Cl)c(C)c6)c6ccc(Cl)c(-c7c(C)nn(C)c7C)c65)C4=O)c32)n1 [Example 592, (R)-7-(7-chloro-10-(3-(4-chloro-3,5-dimethylphenoxy)propyl)-4-methyl-1-oxo-6-(1,3,5-trimethyl-1H-pyrazol-4-yl)-3,4-dihydropyrazino[1,2-a]indol-2(1H)-yl)-5-(2-(dimethylamino)ethoxy)-1-((6-methylpyridin-2-yl)methyl)-1H-indole-2-carboxylic acid] | 880 nM
11 | Cc1cc(OCCCc2c3n(c4c(-c5c(C)nn(C)c5C)c(Cl)ccc24)CCCN(c2cn(C)c4ccc(C(=O)O)cc24)C3=O)cc(C)c1Cl [Example 80, 3-(8-Chloro-11-(3-(4-chloro-3,5-dimethylphenoxy)propyl)-1-oxo-7-(1,3,5-trimethyl-1H-pyrazol-4-yl)-4,5-dihydro-1H-[1,4]diazepino[1,2-a]indol-2(3H)-yl)-1-methyl-1H-indole-5-carboxylic acid] | 250 nM
12 | COc1ccc(N2C[C@@H](C)n3c(c(CCCOc4cc(C)c(Cl)c(C)c4)c4ccc(Cl)c(-c5c(C)nc(CN6CCN(C)CC6)nc5C)c43)C2=O)c2c1cc(C(=O)O)n2Cc1ccccn1 [Example 492, (R)-7-(7-Chloro-10-(3-(4-chloro-3,5-dimethylphenoxy)propyl)-6-(4,6-dimethyl-2-((4-methylpiperazin-1-yl)methyl)pyrimidin-5-yl)-4-methyl-1-oxo-3,4-dihydropyrazino[1,2-a]indol-2(1H)-yl)-4-methoxy-1-(pyridin-2-ylmethyl)-1H-indole-2-carboxylic acid] | 360 nM
13 | Cc1cc(OCCCc2c3n(c4c(-c5c(C)nn(C)c5C)c(Cl)ccc24)[C@H](C)CN(c2cccc4c(C(N)=O)cn(C)c24)C3=O)cc(C)c1Cl [Example 357, (R)-7-(7-Chloro-10-(3-(4-chloro-3,5-dimethylphenoxy)propyl)-4-methyl-1-oxo-6-(1,3,5-trimethyl-1H-pyrazol-4-yl)-3,4-dihydropyrazino[1,2-a]indol-2(1H)-yl)-1-methyl-1H-indole-3-carboxamide] | 2000 nM
14 | Cc1cc(OCCCc2c3n(c4c(-c5c(C)nn(C)c5C)c(Cl)ccc24)[C@H](C)CN(c2cn(C)c4ccc(C(=O)O)cc24)C3=O)cc(C)c1Cl [Example 76, (R)-3-(7-Chloro-10-(3-(4-chloro-3,5-dimethylphenoxy)propyl)-4-methyl-1-oxo-6-(1,3,5-trimethyl-1H-pyrazol-4-yl)-3,4-dihydropyrazino[1,2-a]indol-2(1H)-yl)-1-methyl-1H-indole-5-carboxylic acid] | < 200 nM
15 | Cc1cc(N2C[C@@H](C)n3c(c(CCCOc4cc(C)c(Cl)c(C)c4)c4ccc(Cl)c(-c5c(C)nn(C)c5C)c43)C2=O)c2c(c1)cc(C(=O)O)n2CCN1CCOCC1 [Example 597, (R)-7-(7-chloro-10-(3-(4-chloro-3,5-dimethylphenoxy)propyl)-4-methyl-1-oxo-6-(1,3,5-trimethyl-1H-pyrazol-4-yl)-3,4-dihydropyrazino[1,2-a]indol-2(1H)-yl)-5-methyl-1-(2-morpholinoethyl)-1H-indole-2-carboxylic acid] | 690 nM
16 | Cc1cc(OCCCc2c3n(c4c(-c5c(C)nn(C)c5C)c(Cl)ccc24)CCCN(c2ccc(C(=O)O)c4ccn(C)c24)C3=O)cc(C)c1Cl [Example 55, 7-(8-Chloro-11-(3-(4-chloro-3,5-dimethylphenoxy)propyl)-1-oxo-7-(1,3,5-trimethyl-1H-pyrazol-4-yl)-4,5-dihydro-1H-[1,4]diazepino[1,2-a]indol-2(3H)-yl)-1-methyl-1H-indole-4-carboxylic acid] | 5700 nM

Same assay, conditions: read-out: GI50 on cellular proliferation of H929 human cancer cell lines; H929 cells, 72 h, Cell TiterGlo, 10% FBS

Row | Compound | GI50
17 | Cc1cc(OCCCc2c3n(c4c(-c5c(C)nn(C)c5C)c(Cl)ccc24)[C@H](C)CN(c2cccc4cc(C(=O)O)ccc24)C3=O)cc(C)c1Cl [Example 187, (R)-5-(7-Chloro-10-(3-(4-chloro-3,5-dimethylphenoxy)propyl)-4-methyl-1-oxo-6-(1,3,5-trimethyl-1H-pyrazol-4-yl)-3,4-dihydropyrazino[1,2-a]indol-2(1H)-yl)-2-naphthoic acid] | < 200 nM
18 | Cc1cc(OCCCc2c3n(c4c(-c5c(C)ncnc5C)c(C)ccc24)[C@H](C)CN(c2cccc4cc(C(=O)O)n(Cc5ccccn5)c24)C3=O)cc(C)c1Cl (atropisomer, axis not shown) [Example 276, (R)-7-(10-(3-(4-chloro-3,5-dimethylphenoxy)propyl)-6-(4,6-dimethylpyrimidin-5-yl)-4,7-dimethyl-1-oxo-3,4-dihydropyrazino[1,2-a]indol-2(1H)-yl)-1-(pyridin-2-ylmethyl)-1H-indole-2-carboxylic acid] | 290 nM
